Data on three molecules can be found in patent publication US12644097B2, “Differentiation of trophectoderm lineage cells from pluripotent stem cells” (The United States of America, as represented by the …, priority 2020, dated 2026).

The conditions of assay [1]: cited from earlier work; for IC50: as described in Sidrauski et al. eLIFE 2:e00498 (2013).
Assay [2] relates to trophoblast stem-like cells. Kind of assay: Passaging of trophoblast stem-like cells in TE3 medium with or without Chroman 1 or CEPT supplementation. The assay is classed as cell-based, human. Particulars: additional 25 nM Chroman 1, alone or as component of CEPT, in TE3 medium (total 50 nM Chroman 1) for first 24 hours after passaging; WA09-derived cells, reproduced with JHU191i, JHU198i, MCW032i, WA07. The method, then: To generate self-renewing trophoblast stem-like cells from the syncytiotrophoblast-like structures, the syncytiotrophoblast-like structures were cultured in TE3 medium: TE2 medium supplemented with 300 nM CHIR98014, 100 ng/ml EGF, 50 ng/ml HGF, 80 ng/ml R-spondin 1, 50 ng/ml R-spondin 3, 2.5 μM prostaglandin E2 and 25 nM Chroman 1. Trophoblast stem-like cells appeared in the cultures and started proliferating after a very short time following the start of the culturing into TE3 medium. The cells created compact epithelial-like colonies with cobblestone morphology and clearly defined border. The individual cells gradually became more compact. This morphological transformation was most obvious at passage 3 performed in TE3 medium.
The trophoblast stem-like cells were cultured in TE3 medium with or without CEPT supplementation, and also with or without Chroman 1 supplementation. For Chroman 1 or CEPT supplementation, when the trophoblast stem-like cells were passaged, the cells were seeded into TE3 medium supplemented with either an additional 25 nM Chroman 1 (for Chroman 1 supplementation) or CEPT containing 25 nM Chroman 1 (for CEPT supplementation). Since TE3 medium already contained 25 nM Chroman 1, only another 25 nM was added either alone or as a component of CEPT, so that the total concentration of Chroman 1 in TE3 medium was 50 nM for the first 24 hours after passaging. […]

As for `O=C(COc1ccc(Cl)cc1)NC1CCC(NC(=O)COc2ccc(Cl)cc2)CC1` (stereo not drawn) [cis-ISRIB], the IC50 in assay [1] was 600 nM.
Consider `COc1ccc2c(c1)C[C@H](C(=O)Nc1ccc(-c3cn[nH]c3)cc1OCCN(C)C)CO2` [Chroman 1, (3S)—N-{2-[2-(Dimethylamino)ethoxy]-4-(1H-pyrazol-4-yl)phenyl}-6-methoxy-3,4-dihydro-2H-1-benzopyran-3-carboxamide], for which the “effect of supplementation at passaging on trophoblast stem-like cells” value in assay [2] is on record as “benefited”.
As for `O=C(COc1ccc(Cl)cc1)N[C@H]1CC[C@H](NC(=O)COc2ccc(Cl)cc2)CC1` [trans-ISRIB, N,N′-((1r,4r)-cyclohexane-1,4-diyl)bis(2-(4-chlorophenoxy)acetamide)], in assay [1], the IC50 is 5 nM. For the same molecule, in assay [1] (trans-ISRIB more potent than cis-ISRIB, Sidrauski et al. 2013), the “potency of trans-ISRIB relative to cis-ISRIB” value is listed as 100 fold.

Usually IC50 stands for the concentration at which inhibition is half-maximal.
